Where two headings read alike, the source gives them in different places.
Assays:
RAS [1] = assay: Active Ras pull down assay (CRAF-RBD, Ral-GDS-RA) after EGF stimulation in HeLa cells; format: cell-based; conditions: pre-treatment at 200 nM, 1 h before EGF stimulation
RAS [2] = conditions: cited from earlier work

Row | SMILES | inactivation of KRAS (inhibition of KRAS activation), relative luminescence vs DMSO (KRAS G12V) | further results
1 | CNCCOc1ccc2c(c1)O[C@@]1(c3ccc(Cl)cc3)[C@H](c3ccccc3)C[C@@H](O)[C@@]21O [IMD-26260] | inactivation of KRAS | –
2 | COc1cc(OC)c2c(c1)O[C@@]1(c3ccc(Br)cc3)[C@H](c3ccccc3)C[C@@H](O)[C@@]21O [FL3] | inactivation of KRAS | –
3 | COc1ccc([C@@]23Oc4cc(OC)cc(OC)c4[C@]2(O)[C@H](O)C[C@H]3c2cccc(F)c2)cc1 [FL15] | inactivation of KRAS | –
4 | COc1ccc([C@@]23Oc4cc(OC)cc(OC)c4[C@]2(O)[C@H](OC=O)C[C@H]3c2ccccc2)cc1 [FL19] | inactivation of KRAS | –
5 | COc1ccc([C@@]23Oc4cc(OC)cc(OC)c4[C@]2(O)[C@H](O)[C@H](C(=O)N(C)C)[C@H]3c2ccccc2)cc1 [rocaglamide] | – | activation of RAS in response to EGF (GTP-loaded Ras pull down) (RAS [1]): inhibited; inactivation of KRAS (inhibition of KRAS activation), relative luminescence vs DMSO (KRAS G12V; 100 nM compounds for 4 h, KRAS G12V transfected HeLa cells, similar results with KRAS WT + EGF (100 ng/ml, 30 min)): inactivation of KRAS; RAS-activation in KRAS-mutated cell lines (RAS [2]): inhibits RAS-activation; specificity for KRAS versus isoforms HRAS and NRAS (RAS [2]): not specific enough to differentiate between KRAS and a closely related isoform HRAS and NRAS
6 | CNC(=O)[C@H]1[C@@H](O)[C@@]2(O)c3c(OC)cc(OC)cc3O[C@@]2(c2ccc(Br)cc2)[C@@H]1c1ccccc1 [FL13] | inactivation of KRAS | –
7 | COC(=O)[C@H]1[C@@H](O)[C@@]2(O)c3c(OC)cc(OC)cc3O[C@@]2(c2ccc(Br)cc2)[C@@H]1c1ccccc1 [FL10] | inactivation of KRAS | –
8 | COc1cc(OC)c2c(c1)O[C@@]1(c3ccc(Br)cc3)[C@H](c3cccc(F)c3)C[C@H](NC(N)=O)[C@@]21O [FL40] | inactivation of KRAS | –
9 | COc1cc(OC)c2c(c1)O[C@@]1(c3ccc(Cl)cc3)[C@H](c3cccc(F)c3)C[C@H](NC(=O)N(C)C)[C@@]21O [FL42] | inactivation of KRAS | –
10 | COc1cc(OC)c2c(c1)O[C@@]1(c3ccc(Br)cc3)[C@H](c3cccc(F)c3)C[C@H](NC(=O)N(C)C)[C@@]21O [FL37] | inactivation of KRAS | –

From US20230165829A1, “FLAVAGLINE DERIVATIVES FOR INHIBITION OF KRAS ONCOGENE ACTIVATION” (KHR BIOTEC GMBH, priority 2018, published 2023)
